{"source": "patent US11912645B2", "about": "“Lipopeptide compounds for the treatment of pain disorders” (INSERM (Institut National de la Santé et de la Recherche …, priority 2017, dated 2024)", "key": {"[1]": {"tested_on": "mouse sensory neurons activated by mix of GPCR agonists (histamine, serotonin, bradykinin)", "experiment": "Calcium flux in sensory neurons activated by mix of GPCR agonists", "assay_type": "cell-based", "details": "serotonin 10 μM each, pretreatment with increasing amounts of compound", "experimental": "FIG. 4: C12-Asn-GABA inhibits neuronal activation via the GABA B receptor. Amplitude of intracellular calcium mobilization (ΔF/F; right panel) in mouse sensory neurons and percentage of responding neurons (left panel) pretreated with increasing amounts of C12-Asn-GABA (black circle) or vehicle (HBSS; white circle) and treated with capsaicin (125 nM; A) or a mix of G protein coupled receptor agonists (histamine, serotonin and bradykinin 10 μM each; B). Data are represented as mean±SEM; n=4 independent experiments of 3 wells per condition and 30-80 neurons per well. […] Percentage of responding neurons pretreated with increasing amounts of saclofen (black circle) or vehicle (HBSS; white circle) and treated with C12-Asn-GABA (10 μM) and capsaicin (125 nM; C) or a mix of G protein coupled receptor agonist (histamine, serotonin and bradykinin 10 μM each; D). Data are represented as mean±SEM; n=4 independent experiments of 3 wells per condition and 30-80 neurons per well.\nMale C57B16 mice (6-8 weeks) were used to produce primary cultures of dorsal root ganglia (DRG) sensory neurons for calcium flux experiments, and to perform studies of colorectal distention and intestinal isotonic contraction. All procedures were approved by Institutional Animal Care Committees (CEEA 122). […]"}, "[2]": {"tested_on": "capsaicin-induced visceral hypersensitivity", "experiment": "Capsaicin-induced visceral hypersensitivity, visceromotor response to colorectal distension", "assay_type": "in vivo, mouse", "experimental": "(§1) FIG. 6: C12-Asn-GABA inhibits capsaicin-induced visceral hypersensitivity without altering Intestinal contraction. Mice received intracolonic administration of C12-Asn-GABA (10 μM; black symbols) or vehicle (40% ethanol; white symbols) and 30 minutes or 4 hours later colon (A) and blood (B) were harvested in order to quantify C12-Asn-GABA by LC-MS/MS. Data are expressed as mean±SEM, n=8 mice per group. […] Mice received intracolonic administration of C12-Asn-GABA (10 μM; black symbols) or vehicle (40% ethanol; white symbols) and 30 minutes or 4 hours later an intracolonic administration of capsaicin (100 μg/mouse; square) or its vehicle (40% ethanol; circle). Fifteen minutes after capsaicin or vehicle treatment, visceromotor response (VMR) to increasing pressures of colorectal distension was performed. Data are expressed as mean±SEM, n=7-8 mice per group. […] Ex vivo measurement of duodenal mechanical contraction frequency (B) and amplitude (C) in response to Krebs-Ringer solution (control; white bar), to DMSO 0.2% (vehicle; gray bar) or to C12-Asn-GABA (10 μM; black bar). Data are expressed as mean±SEM, n=5-6 per group. Statistical analysis was performed using Kruskal-Wallis analysis of variance and subsequent Dunn's post hoc test.\nFIG. 8: Trimebutine maleate has no effect on capsaicin-induced visceral hypersensitivity. Mice received an oral treatment with vehicle (PEG200, white circle) or with trimebutine maleate (25 mg/kg, black circle) and 4 hours later an intracolonic administration of capsaicin (100 μg/mouse; black and white circle). Fifteen minutes after capsaicin, visceromotor response (VMR) to increasing pressures of colorectal distension was performed. Data are expressed as mean±SEM, n=7-8 mice per group. […]\nIn a first set of experiment, we assessed the ability of the C12-Asn-GABA to cross the epithelial barrier, in vivo. […] The impact of C12-Asn-GABA on visceral hypersensitivity was assessed by measuring the visceromotor responses (VMR) to colorectal distension (CRD). […]"}, "[3]": {"tested_on": "duodenal preparations", "experiment": "Ex vivo duodenal mechanical contraction (isotonic sensors)", "set-up": "species or system mouse", "details": "10 μM, vs control and vehicle", "experimental": "as §1, with “Statistical analysis was performed using Kruskal-Wallis analysis of variance and subsequent Dunn's post hoc test.” left out\nIBS patients are characterized by diverse alterations of gut transit: diarrhea, constipation or mixed^1, thus a drug impairing bowel motility could limit its putative use in this pathology. We evaluated whether C12-Asn-GABA was capable of impairing duodenal motility. […]"}}}
{"smiles": "CCCCCCCCCCCC(=O)NC(CC(N)=O)C(=O)NCCCC(=O)O", "note": "(centres unmarked) [C12-Asn-GABA, C11 C(O)-Asn-gamma-aminobutyric acid]", "values": [{"measurement": "calcium flux increase induced by mix of GPCR agonists (% responding neurons, amplitude ΔF/F)", "setting": "[1]", "result": "prevented by C12-Asn-GABA pretreatment in a dose-dependent manner"}, {"measurement": "capsaicin-evoked increase in VMR to CRD", "setting": "[2]; 100 μL intracolonic 10 μM pretreatment, capsaicin 100 μg/animal, CRD 15-60 mm Hg", "result": "significantly prevented for all distension pressures"}, {"measurement": "visceral sensitivity in response to CRD in the absence of capsaicin", "setting": "[2]; intracolonic 10 μM, no capsaicin", "result": "did not modify visceral sensitivity"}, {"measurement": "amplitude of intestinal contractions", "setting": "[3]", "result": "nor the amplitude of intestinal contractions"}, {"measurement": "frequency of duodenal contractions", "setting": "[3]", "result": "impairs neither the frequency of contractions"}]}
